Biological target: T1, olfactory receptor OR5K1 (Homo sapiens, UniProt Q8NHB7)
T1 construct: expressed in transfected cells; host or cells: HEK293
T1 sequence (Q8NHB7 1-308): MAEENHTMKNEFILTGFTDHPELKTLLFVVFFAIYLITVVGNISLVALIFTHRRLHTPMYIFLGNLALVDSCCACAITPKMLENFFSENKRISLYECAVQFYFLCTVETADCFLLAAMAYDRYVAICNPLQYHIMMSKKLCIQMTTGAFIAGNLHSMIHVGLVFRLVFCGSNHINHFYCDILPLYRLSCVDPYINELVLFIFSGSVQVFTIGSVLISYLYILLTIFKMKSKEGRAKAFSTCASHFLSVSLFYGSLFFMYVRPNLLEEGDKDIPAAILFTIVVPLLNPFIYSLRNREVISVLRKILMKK
Assay: Antagonist assay: inhibition of OR5K1 response to 2,6-dimethylpyrazine (luciferase reporter)
Assay type: cell-based
Conditions: HEK293 cells expressing OR5K1; 2,6-dimethylpyrazine 1 mM + test substance 300 μM (cytotoxic flavoring agents re-evaluated at 333 μM + 100 μM); read-out: Inhibition rate (receptor response-inhibiting rate)
Protocol: The receptor response-inhibiting rate of a test substance was calculated as follows. The receptor activity (X−Y) by stimulation with 2,6-dimethylpyrazine alone was determined by subtracting the luminescence value (Y) in cells to which the receptor was introduced but were not stimulated with 2,6-dimethylpyrazine from the luminescence value (X) derived from firefly luciferase induced by stimulation with 2,6-dimethylpyrazine alone. Similarly, the receptor activity (Z−Y) in the presence of a test substance was determined by subtracting the luminescence value (Y) in cells not stimulated with 2,6-dimethylpyrazine from the luminescence value (Z) stimulated with a mixture of 2,6-dimethylpyrazine and the test substance. The reduction rate of the receptor activity (Z−Y) in the presence of a test substance to the receptor activity (X−Y) by stimulation with 2,6-dimethylpyrazine alone was calculated by the following computation expression: Inhibition rate (%)={1−(Z−Y)/(X−Y)}×100, to determine the receptor response-inhibiting rate of the test substance. In the measurement, multiple independent experiments were performed in duplicate, and the average of each experiment was used.

| Compound | inhibition at 300 µM [%] |
| --- | --- |
| O=C1CCCCCCCCCCCC(=O)OCCO1 [ethylene brassylate, 1,4-dioxacyclo-heptadecane-5,17-dione] | ≥ 40 |
| CCCCCCOC(=O)c1ccccc1O [hexyl salicylate] | ≥ 40 |
| CC(C=O)c1ccccc1 (centres unmarked) [hydratropic aldehyde, 2-phenyl-propionaldehyde] | ≥ 50 |
| CC(C)=CCCC(C)=CC=O [citral, 3,7-dimethyl-2,6-octadienal] | ≥ 75 |
| CCC=C(C)C(O)CCCCC (centres unmarked) [undecavertol, 4-methyl-3-decen-5-ol] | ≥ 75 |
| O=CC=Cc1ccccc1 [cinnamaldehyde] | ≥ 50 |
| CCC(O)COC1CCCCC1C(C)(C)C (centres unmarked) [Amber Core, 1-(2-tert-butylcyclohexyloxy)-2-butanol] | ≥ 75 |
| CC(=CCC1CC=C(C)C1(C)C)CO (centres unmarked) [Sandalmysore Core, 2-methyl-4-(2,2,3-trimethyl-3-cyclopenten-1-yl)-2-buten-1-ol] | ≥ 50 |
| CC=CC(=O)C1=C(C)C=CCC1(C)C [damascenone, 1-(2,6,6-trimethyl-1,3-cyclohexadien-1-yl)-2-buten-1-one] | ≥ 40 |
| CC(=O)C1=C(C)C2CC3(C1)C(C)CCC3C2(C)C (centres unmarked) [acetyl cedrene, 1-(2,3,4,7,8,8a-hexahydro-3,6,8,8-tetramethyl-1H-3a,7-methanoazulen-5-yl)-ethanone] | ≥ 50 |
| CC(=O)c1c(C)c([N+](=O)[O-])c(C(C)(C)C)c([N+](=O)[O-])c1C [musk ketone, 4-tert-butyl-2,6-dimethyl-3,5-dinitro-acetophenone] | ≥ 40 |
| CC(C)=CCCC(C)CC=O (centres unmarked) [citronellal, 3,7-dimethyl-6-octenal] | ≥ 50 |
| C=C(OCC)C1C(C)(C)CC(=O)CC1(C)C [kephalis, 4-(1-ethoxyvinyl)-3,3,5,5-tetramethyl cyclohexanone] | ≥ 50 |
| CC(=O)O[C@]1(C)CC[C@@]23C[C@@H]1C(C)(C)[C@@H]2CC[C@H]3C [cedryl acetate] | ≥ 50 |
| C=CCc1ccc(O)c(OC)c1 [eugenol, 1-allyl-3-methoxy-4-hydroxybenzene] | ≥ 40 |
| CC(=O)c1cc2c(cc1C)C(C)(C)C(C)CC2(C)C (centres unmarked) [Tonalid, 1-(5,6,7,8-tetrahydro-3,5,5,6,8,8-hexamethyl-2-naphthalenyl)-ethanone] | ≥ 75 |

| Compound | inhibition at 300 µM [%] |
| --- | --- |
| O=C(OCCc1ccccc1)c1ccccc1O [phenylethyl salicylate] | ≥ 75 |
| CCCCCC1=C(C)CCC1=O [dihydrojasmon, 2-pentyl-3-methyl-2-cyclopenten-1-one] | ≥ 40 |
| CC(C)CCCC(C)CCO (centres unmarked) [tetrahydrogeraniol, 3,7-dimethyl-1-octanol] | ≥ 50 |
| CC(C=O)Cc1ccc(C(C)(C)C)cc1 (stereo not drawn) [lilial, α-methyl-β-(p-tert-butylphenyl)-propionaldehyde] | ≥ 50 |
| CCC(=CCC1CC=C(C)C1(C)C)CO (centres unmarked) [bacdanol, 2-ethyl-4-(2,2,3-trimethyl-3-cyclopenten-1-yl)-2-buten-1-ol] | ≥ 75 |
| CC1(C)CCCC2(C)C1CCC1(C)OCCC12 (centres unmarked) [Ambrotech, dodecahydro-3a,6,6,9a-tetramethyl-naphtho[2,1-b]furan] | ≥ 50 |
| CC(C)=CCC/C(C)=C/CO [geraniol, (E)-3,7-dimethyl-2,6-octadien-1-ol] | ≥ 40 |
| Cc1ccc(C(C)C)c(O)c1 [thymol, 5-methyl-2-(1-methylethyl)-phenol] | ≥ 75 |
| CC(C)[C@H]1CC[C@@H](CO)CC1 [mayol, cis-4-isopropyl-cyclohexylmethanol] | ≥ 40 |
| CC(=O)C1(C)CC2=C(CCCC2(C)C)CC1C (centres unmarked) [Iso E Super, 7-acetyl-1,2,3,4,5,6,7,8-octahydro-1,1,6,7-tetramethyl-naphthalene] | ≥ 75 |
| CC(C=O)C1CCCCC1 (centres unmarked) [Pollenal II, 2-cyclohexylpropanal] | ≥ 50 |
| CC(=O)c1cc(C(C)(C)C)cc2c1C=CC2(C)C [celestolide, 6-tert-butyl-1,1-dimethylinden-4-yl methyl ketone] | ≥ 40 |
| C=CCCC(=O)C1=CCCC(C)(C)C1 [Dynascone, 1-(5,5-dimethyl-1-cyclohexen-1-yl)-4-penten-1-one] | ≥ 40 |
| CC(C)=CCCC(C)CCOCC=O (centres unmarked) [citronellyloxyacetaldehyde, 6,10-dimethyl-3-oxa-9-undecenal] | ≥ 40 |
| CC=Cc1ccc(OCc2ccccc2)c(OC)c1 [benzyl isoeugenol, 2-methoxy-1-(phenylmethoxy)-4-(1-propenyl)-benzene] | ≥ 50 |

Tested on: not listed separately
Assay: Sensory test of reduction of the odor of 2,6-dimethylpyrazine in dough
Conditions: flavoring agent 0.5 μL added to dough 0.5 g containing 1% 2,6-dimethylpyrazine; four panelists; rating 1 to 5; FIG. 3
Protocol: A flavoring agent (0.5 μL) was added to dough (0.5 g) containing 2,6-dimethylpyrazine (1%, and the odor thereof was evaluated by comparing the strength of odor of 2,6-dimethylpyrazine in dough not applied with flavor by the flavoring agent. The sensory evaluation test was performed by four panelists. In the evaluation, a case where a strong odor of 2,6-dimethylpyrazine was smelled was rated as 1, and a case where the odor of 2,6-dimethylpyrazine was not smelled at all was rated as 5.

| Compound | odor of 2,6-dimethylpyrazine in sensory test |
| --- | --- |
| ethyl-(3aα,4α,7α,3aα)-octahydro-4,7-methano-3aH-indene-3a-carboxylate [Fruitate] | inhibited |
| CCC=C(C)C(O)CCCCC (centres unmarked) [undecavertol, 4-methyl-3-decen-5-ol] | inhibited |
| CC(=O)/C(C)=C/C1C(C)=CCCC1(C)C (stereo not drawn) [α-isomethyl ionone] | inhibited |
| CCC(O)COC1CCCCC1C(C)(C)C (centres unmarked) [Amber Core, 1-(2-tert-butylcyclohexyloxy)-2-butanol] | inhibited |
| CC(=CCC1CC=C(C)C1(C)C)CO (centres unmarked) [Sandalmysore Core, 2-methyl-4-(2,2,3-trimethyl-3-cyclopenten-1-yl)-2-buten-1-ol] | inhibited |
| CC=CC(=O)C1=C(C)C=CCC1(C)C [damascenone, 1-(2,6,6-trimethyl-1,3-cyclohexadien-1-yl)-2-buten-1-one] | inhibited |
| CCCCCCCC1CCC(=O)O1 (centres unmarked) [γ-undecalactone] | inhibited |
| CC1C/C=C/CCCCCCCCCC(=O)C1 (centres unmarked) [δ-muscenone, (5E)-3-methylcyclopenta-5-decen-1-one] | inhibited |
| CC1=CC(C)C(C=O)CC1 (centres unmarked) [triplal, 2,4-dimethyl-3-cyclohexene-1-carboxyaldehyde] | inhibited |
| CCCCCCC(C=O)=Cc1ccccc1 [α-hexylcinnamic aldehyde] | inhibited |
| CC(=O)C=CC1=C(C)CCCC1(C)C [β-ionone, 4-(2,6,6-trimethyl-1-cyclohexen-1-yl)-3-buten-2-one] | inhibited |
| CC(C=O)Cc1ccc(C(C)(C)C)cc1 (stereo not drawn) [lilial, α-methyl-β-(p-tert-butylphenyl)-propionaldehyde] | inhibited |
| CC(=O)c1ccc2ccccc2c1 [β-methyl naphthyl ketone] | inhibited |
| CC(C=O)Cc1ccc2c(c1)OCO2 (stereo not drawn) [helional, α-methyl-3,4-methylenedioxyhydrocinnamic aldehyde] | inhibited |
| C=CCCC(=O)C1=CCCC(C)(C)C1 [Dynascone, 1-(5,5-dimethyl-1-cyclohexen-1-yl)-4-penten-1-one] | inhibited |

Biological target: T1, olfactory receptor OR5K1
Assay: Luciferase reporter gene assay: response of olfactory receptor to pyrazine derivatives
Assay type: cell-based
Conditions: 0, 3, 10, 30, 100, 300 and 1000 μM; HEK293 cells expressing OR5K1 with RTP1S variant; FIG. 2
Protocol: HEK293 cells expressing 373 types of human olfactory receptors were produced. A reaction solution having a composition shown in Table 1 was prepared and left to stand in a clean bench for 15 min and then was dispensed in each well of a 96-well plate (Becton, Dickinson and Company). Subsequently, HEK293 cells (100 μL, 3×10^5 cells/cm^2) were seeded in each well and cultured in an incubator at 37° C. and 5% CO2 for 24 hr.
An olfactory receptor expressed in HEK293 cells couples with endogenous Gas in the cells to activate adenylate cyclase and thereby increases the amount of intracellular cAMP. In this study, the response of a pyrazine derivative was measured by luciferase reporter gene assay which monitors an increase in the amount of intracellular cAMP as the luminescence value derived from a firefly luciferase gene (fluc2P-CRE-hygro). A Renilla luciferase gene was fused downstream of a CMV promoter (hRluc-CMV) and was also introduced to HEK293 cells as an internal standard to correct errors in transgenic efficiency and number of cells.
The culture medium was removed from the culture produced in the above 3), and 75 μL of a solution prepared with a CD293 medium (Invitrogen Inc.) so as to contain a pyrazine derivative (1 mM 2,6-dimethylpyrazine) was added thereto. The cells were cultured in a CO2 incubator for 2.5 hr to sufficiently express the luciferase gene in the cells. The luciferase activity was measured with a Dual-Glo™ luciferase assay system (Promega Corporation) in accordance with the operating manual of the system. The fold increases were calculated by dividing the luminescence value derived from firefly luciferase induced by stimulation with a pyrazine derivative at each concentration by the luminescence value in cells not stimulated with the pyrazine derivative and were used as an index of response strength.
Olfactory receptor OR5K1 (SEQ ID NO: 2) was expressed in HEK293 cells together with an RTP1S variant (SEQ ID NO: 4) by the same procedure as in Example 1, and the dependency of the response on the concentration (0, 3, 10, 30, 100, 300, and 1000 μM) of various pyrazine compounds was investigated. The pyrazine compounds used in this Example were pyrazine and pyrazine derivatives selected from the group consisting of 2-methylpyrazine, 2,3-dimethylpyrazine, 2,5-dimethylpyrazine, 2,3,5-trimethylpyrazine, 2,3,5,6-tetramethylpyrazine and 2-ethylpyrazine.

| Compound | response of OR5K1, dependency on concentration |
| --- | --- |
| CCc1cnccn1 [2-ethylpyrazine] | responded in a dose-dependent manner |
| Cc1cnc(C)c(C)n1 [2,3,5-trimethylpyrazine] | responded in a dose-dependent manner |
| Cc1cnccn1 [2-methylpyrazine] | responded in a dose-dependent manner |
| Cc1nc(C)c(C)nc1C [2,3,5,6-tetramethylpyrazine] | responded in a dose-dependent manner |
